According to the OligoGym collection:
Several values for one entry are separate records, joined by “and”; a condition that tells them apart may be missing. Identical values can stand only once. After the bases stand the sugars from the 5' end (letter, count) and the backbone: PS all phosphorothioate, else s phosphorothioate and o phosphodiester by linkage. Methylation of C is not given here. e = 2'-O-(2-methoxyethyl) (MOE); k = constrained ethyl (cEt); d = 2'-deoxy (DNA)

Biological target: SOD1
Details: ASO

Sequence: GTTTAATGTTTATCAG (sugars ekddddddddekekee, linkages s1 o1 s8 o3 s2)
- target mRNA inhibition (A431, 0.12 µM): 2%
- target mRNA inhibition (A431, 0.6 µM): 19%
- target mRNA inhibition (A431, 3 µM): 33%
- target mRNA inhibition (A431, 15 µM): 62%
- target mRNA inhibition (HepG2, 0.222 µM): 44%
- target mRNA inhibition (HepG2, 0.667 µM): 63%
- target mRNA inhibition (HepG2, 2 µM): 82%
- target mRNA inhibition (HepG2, 6 µM): 94%

Sequence: GTTTAATGTTTATCAGG (sugars e2 k2 d9 k2 e2, PS)
- target mRNA inhibition (HepG2, 0.1875 µM): 67%
- target mRNA inhibition (HepG2, 0.75 µM): 84%
- target mRNA inhibition (HepG2, 3 µM): 94%
- target mRNA inhibition (HepG2, 5 µM): 92%
- target mRNA inhibition (HepG2, 12 µM): 96%

Sequence: GTTTATTGGGCGATCCC (sugars e2 k2 d8 k2 e3, PS)
- target mRNA inhibition (HepG2, 4 µM): 54%

Sequence: GTTTATTGGGCGATCCC (sugars e3 k2 d7 k2 e3, PS)
- target mRNA inhibition (HepG2, 3 µM): 18%

Sequence: GTTTTCTGGATAGAGGATTA (sugars e5 d10 e5, PS)
- target mRNA inhibition (HepG2, 5 µM): 28% and 39%

Sequence: TAAGATTACAGTGTTTA (sugars e3 k2 d7 k2 e3, PS)
- target mRNA inhibition (HepG2, 3 µM): 54%

Sequence: TAATGTTTATCAGGATA (sugars e2 k2 d8 k2 e3, PS)
- target mRNA inhibition (HepG2, 0.1875 µM): 48%
- target mRNA inhibition (HepG2, 0.75 µM): 78%
- target mRNA inhibition (HepG2, 3 µM): 91%
- target mRNA inhibition (HepG2, 4 µM): 90%
- target mRNA inhibition (HepG2, 12 µM): 95%

Sequence: TAATGTTTATCAGGATA (sugars e2 k2 d8 k2 e3, linkages s1 o2 s9 o2 s2)
- target mRNA inhibition (A431, 0.12 µM): 0%
- target mRNA inhibition (A431, 0.6 µM): 38%
- target mRNA inhibition (A431, 3 µM): 54%
- target mRNA inhibition (A431, 15 µM): 68%
- target mRNA inhibition (HepG2, 0.222 µM): 64%
- target mRNA inhibition (HepG2, 0.667 µM): 89%
- target mRNA inhibition (HepG2, 2 µM): 94%
- target mRNA inhibition (HepG2, 6 µM): 92%

Sequence: TACACCACAAGCCAAAC (sugars e2 k2 d8 k2 e3, PS)
- target mRNA inhibition (HepG2, 4 µM): 56%

Sequence: TACAGCTAGCAGGATAA (sugars e2 k2 d9 k2 e2, PS)
- target mRNA inhibition (HepG2, 0.1875 µM): 24%
- target mRNA inhibition (HepG2, 0.75 µM): 71%
- target mRNA inhibition (HepG2, 3 µM): 85%
- target mRNA inhibition (HepG2, 4 µM): 86%
- target mRNA inhibition (HepG2, 12 µM): 98%

Sequence: TACAGGGTTTTTATTCA (sugars e2 k2 d8 k2 e3, PS)
- target mRNA inhibition (HepG2, 5 µM): 13%

Sequence: TACAGGTCATTGAAACA (sugars e2 k2 d8 k2 e3, PS)
- target mRNA inhibition (HepG2, 5 µM): 26%

Sequence: TACAGGTCATTGAAACA (sugars e3 k2 d7 k2 e3, PS)
- target mRNA inhibition (HepG2, 3 µM): 9%

Sequence: TACCCATCTGTGATTTA (sugars e2 k2 d8 k2 e3, PS)
- target mRNA inhibition (HepG2, 5 µM): 29%

Sequence: TACCCATCTGTGATTTAAGT (sugars e5 d10 e5, PS)
- target mRNA inhibition (HepG2, 5 µM): 50%

Sequence: TACTTTCCTTCTGCTCG (sugars e3 k2 d7 k2 e3, PS)
- target mRNA inhibition (HepG2, 3 µM): 14%

Sequence: TAGACACATCGGCCACACCA (sugars e5 d10 e5, PS)
- target mRNA inhibition (HepG2, 5 µM): 46% and 36%

Sequence: TAGAGGATTAAAGTGAG (sugars e3 k2 d7 k2 e3, PS)
- target mRNA inhibition (HepG2, 3 µM): 21%

Sequence: TAGGCCAGACCTCCGCGCCT (sugars e5 d10 e5, PS)
- target mRNA inhibition (HepG2, 4 µM): 33%

Sequence: TATTCACAGGCTTGAAT (sugars e2 k2 d8 k2 e3, PS)
- target mRNA inhibition (HepG2, 5 µM): 24%

Sequence: TATTCACAGGCTTGAAT (sugars e2 k2 d9 k2 e2, PS)
- target mRNA inhibition (HepG2, 5 µM): 11%

Sequence: TATTCACAGGCTTGAAT (sugars e3 k2 d7 k2 e3, PS)
- target mRNA inhibition (HepG2, 3 µM): 0%

Sequence: TATTGGGCGATCCCAAT (sugars e2 k2 d8 k2 e3, PS)
- target mRNA inhibition (HepG2, 4 µM): 19%

Sequence: TATTGGGCGATCCCAAT (sugars e2 k2 d9 k2 e2, PS)
- target mRNA inhibition (HepG2, 4 µM): 6%

Sequence: TCAGGATACATTTCTACAGC (sugars e5 d10 e5, PS)
- target mRNA inhibition (HepG2, 0.1875 µM): 13%
- target mRNA inhibition (HepG2, 0.75 µM): 42%
- target mRNA inhibition (HepG2, 3 µM): 75%
- target mRNA inhibition (HepG2, 5 µM): 70%
- target mRNA inhibition (HepG2, 12 µM): 92%

Sequence: TCAGTTTCTCACTACAG (sugars e2 k2 d8 k2 e3, PS)
- target mRNA inhibition (HepG2, 5 µM): 25%

Sequence: TCATAATAAGTGCCATACAG (sugars e5 d10 e5, PS)
- target mRNA inhibition (HepG2, 5 µM): 0%

Sequence: TCATCTGCTTTTTCATG (sugars e3 k2 d7 k2 e3, PS)
- target mRNA inhibition (HepG2, 3 µM): 71%

Sequence: TCATTGAAACAGACATT (sugars e3 k2 d7 k2 e3, PS)
- target mRNA inhibition (HepG2, 3 µM): 10%

Sequence: TCCAAGGGAATGTTTAT (sugars e2 k2 d8 k2 e3, PS)
- target mRNA inhibition (HepG2, 4 µM): 27%

Sequence: TCCAAGGGAATGTTTAT (sugars e2 k2 d9 k2 e2, PS)
- target mRNA inhibition (HepG2, 4 µM): 57%

Sequence: TCCAAGTGATCATAAAT (sugars e2 k2 d9 k2 e2, PS)
- target mRNA inhibition (HepG2, 5 µM): 39%

Sequence: TCCTTTGGCCCACCGTG (sugars e3 k2 d7 k2 e3, PS)
- target mRNA inhibition (HepG2, 3 µM): 39%

Sequence: TCTACAGCTAGCAGGAT (sugars e2 k2 d9 k2 e2, PS)
- target mRNA inhibition (HepG2, 0.1875 µM): 27%
- target mRNA inhibition (HepG2, 0.75 µM): 61%
- target mRNA inhibition (HepG2, 3 µM): 85%
- target mRNA inhibition (HepG2, 4 µM): 83%
- target mRNA inhibition (HepG2, 12 µM): 96%

Sequence: TCTCACTACAGGTACTT (sugars e2 k2 d9 k2 e2, PS)
- target mRNA inhibition (HepG2, 5 µM): 46%

Sequence: TCTCCAACATGCCTCTC (sugars e3 k2 d7 k2 e3, PS)
- target mRNA inhibition (HepG2, 3 µM): 10%

Sequence: TCTCTTCATCCTTTGGC (sugars e3 k2 d7 k2 e3, PS)
- target mRNA inhibition (HepG2, 3 µM): 14%
